Source: PubChem BioAssay AID1996
≈ marks a conversion by molar mass, not a printed value.

Details: buffer; pH 7.4; 200.0 µM

Row | SMILES | solubility kinetic
1 | CCN(CC)S(=O)(=O)c1ccc(N2CCOCC2)c(NC(=O)c2sccc2C)c1 | 11.4 µg/mL (≈ 26.1 µM)
2 | O=C(O)CSCC(=O)NCc1csc2ccc(Cl)cc12 | 37.9 µg/mL (≈ 115 µM)
3 | COc1cc(OC)c(C(=O)Nc2ccncc2)cc1OC | 42.6 µg/mL (≈ 148 µM)
4 | CC(=O)N1CCN(C(=O)c2ccc3c(c2)OCO3)CC1 | > 41.4 µg/mL
5 | COc1ccccc1/C=C/c1nc(C#N)c(N(C)C)o1 | 0.4 µg/mL (≈ 1.49 µM)
6 | O=C(NCc1cccnc1)c1ccccc1NS(=O)(=O)c1ccc(Br)cc1 | > 66.9 µg/mL
7 | CCn1c(CNC(=O)C2CCCCC2)cc2ccccc21 | 0.4 µg/mL (≈ 1.41 µM)
8 | Cc1cc(NCc2ccccc2)c2ccccc2n1.Cl | > 42.7 µg/mL
9 | Cc1noc(C)c1S(=O)(=O)N1CCCC1C(=O)O (stereo not given) | > 41.1 µg/mL
10 | CC1(C)CC(=O)C=C(NCC(O)c2ccccc2)C1 (stereo not given) | 36.7 µg/mL (≈ 142 µM)
11 | Cc1ccc2nc(NC(=O)c3ccc(Br)o3)sc2c1 | < 0.4 µg/mL
12 | Cc1ccc(N2CC(=O)N(c3ccc(C)cc3)CC2=O)cc1 | 8.6 µg/mL (≈ 29.2 µM)
13 | CC(C)NC(=O)CC1(C(=O)NCc2ccc(Cl)cc2)CCCC1 | > 50.5 µg/mL
14 | O=C(CN1c2cccc3cccc(c23)S1(=O)=O)NCCc1ccccc1 | 2 µg/mL (≈ 5.46 µM)
15 | C=CCNC(=S)Nc1ccc(Cl)cc1F | > 36.7 µg/mL
16 | OCCCNCc1ccc(N(c2ccccc2)c2ccccc2)cc1 | 39 µg/mL (≈ 117 µM)
17 | Clc1cnc(Nc2cccnc2)c(Cl)c1 | 33.8 µg/mL (≈ 141 µM)
18 | CC(=O)c1cccc(Nc2nc(-c3sc(N)nc3C)cs2)c1 | 4.5 µg/mL (≈ 13.6 µM)
19 | S=c1[nH]c2ccccc2n2c(=S)[nH]nc12 | > 35.1 µg/mL
20 | Cc1[nH]c(=O)[nH]c(=O)c1S(=O)(=O)Nc1ccc(S(N)(=O)=O)cc1 | 48.8 µg/mL (≈ 135 µM)
21 | O=C(Nc1sc2c(c1C(=O)O)CCC2)c1ccccc1F | > 45.8 µg/mL
22 | COc1ccc(OC)c(S(=O)(=O)NCC(=O)O)c1 | 34.1 µg/mL (≈ 124 µM)
23 | CCOC(=O)c1cnc2c(OC)cccc2c1Oc1ccccc1 | 7.2 µg/mL (≈ 22.3 µM)
24 | Cc1ccc2c(CN3CCCCC3C)cc(=O)oc2c1C.Cl (stereo not given) | 20.9 µg/mL

Row | SMILES | solubility kinetic
25 | Cc1nc2ccc(NC(=O)C3=NN(C)C(=O)CC3)cc2s1 | > 45.4 µg/mL
26 | COc1ccc(C)cc1N(CC(=O)N1CCOCC1)S(C)(=O)=O | > 51.4 µg/mL
27 | Cn1c(SCc2ccccc2C#N)nc2ccccc2c1=O | 1 µg/mL (≈ 3.25 µM)
28 | CCCCCn1c(=O)c(C(=O)Nc2ccccc2N)c(O)c2ccccc21 | < 0.3 µg/mL
29 | CCN1CCC(O)(C#Cc2ccccc2)CC1 | 33.5 µg/mL (≈ 146 µM)
30 | Cc1nc(SCC(=O)NC2CCCC2)c2c(C)c(C)sc2n1 | 0.5 µg/mL (≈ 1.49 µM)
31 | Cc1c(C(=O)N(C)Cc2nc3ccccc3c(=O)[nH]2)oc2ccccc12 | 4.6 µg/mL (≈ 13.2 µM)
32 | Cc1cc(C)nc(SCC(=O)Nc2ccc3c(c2)OCO3)n1 | 45.8 µg/mL (≈ 144 µM)
33 | CC(C)CNC(=O)COC(=O)Cc1ccc(Cl)cc1 | 36.1 µg/mL (≈ 127 µM)
34 | O=C(CN1CCCC1)Nc1ccc([N+](=O)[O-])cc1 | > 37.4 µg/mL
35 | Cc1ccc(SCCN2CCN(C)CC2)cc1.Cl | 35.5 µg/mL
36 | COc1ccc(C(=O)NCCCNC(=O)c2cnccn2)cc1 | 42.8 µg/mL (≈ 136 µM)
37 | NC(=O)c1sc2nc3c(cc2c1N)CCC3 | 31.3 µg/mL (≈ 134 µM)
38 | CCOc1ccc2nc(N(CCN(C)C)C(=O)c3cc4ccccc4cc3OC)sc2c1.Cl | 4.2 µg/mL
39 | O=C(Nc1ccccc1C(=O)Nc1ccccn1)c1ccccc1F | 2 µg/mL (≈ 5.96 µM)
40 | CC1CN(c2nc(N(C)c3ccccc3)nc(N)c2[N+](=O)[O-])CC(C)O1 (stereo not given) | 28.6 µg/mL (≈ 79.8 µM)
41 | COc1cc(C(=O)COC(=O)c2c(C)noc2C)cc(OC)c1OC | > 52.4 µg/mL
42 | CN(Cc1nc2ccccc2c(=O)[nH]1)C(=O)C1CC(=O)N(c2cccc3ccccc23)C1 (stereo not given) | > 64 µg/mL
43 | O=C(NCc1ccccc1Cl)NCc1ccccc1Cl | 1.1 µg/mL (≈ 3.56 µM)
44 | OCCN1CCN(c2ncnc3sc4c(c23)CCCC4)CC1 | > 47.8 µg/mL
45 | COc1ccc(N(C(=O)c2ccncc2)S(=O)(=O)c2ccc(F)cc2)cc1 | 50.9 µg/mL (≈ 132 µM)
46 | CC(=O)c1ccc(Sc2ccccc2N)c([N+](=O)[O-])c1 | 19.6 µg/mL (≈ 68 µM)
47 | CCOc1ccc(S(=O)(=O)NC2=NCCCCC2)cc1 | > 44.5 µg/mL
48 | CC(C)N(Cc1ccccc1)S(=O)(=O)c1cccs1 | 13 µg/mL (≈ 44 µM)

Row | SMILES | solubility kinetic
49 | CC(C)CNC(=O)C(=O)Nc1cc2c3c(c1)CCC(=O)N3CCC2 | 5 µg/mL (≈ 15.2 µM)
50 | Cc1cc(C)c2c(N)c(C(=O)c3ccccc3)sc2n1 | < 0.3 µg/mL
51 | O=C(CS(=O)(=O)c1c[nH]c2ccccc12)N1CCCCCC1 | > 48.1 µg/mL
52 | N#C/C(=C/c1cccc([N+](=O)[O-])c1)C(=O)Nc1ccccc1O | 10.7 µg/mL (≈ 34.6 µM)
53 | CCC(C)c1ccccc1N=Cc1ccc2c(c1)OCO2 (stereo not given) | 7.1 µg/mL (≈ 25.2 µM)
54 | O=C(O)c1cccc(N2C(=O)CSC2c2ccccc2)c1 (stereo not given) | > 44.9 µg/mL
55 | CC(C)c1ccc(OCC(=O)NC2=NCCS2)cc1 | 15.8 µg/mL (≈ 56.8 µM)
56 | Cc1ccc(OCCC(=O)Nc2ccc(C)c(F)c2)cc1 | 1.4 µg/mL (≈ 4.87 µM)
57 | Cc1ccc(C(=O)OC(C)C(=O)Nc2ccc3c(c2)OCO3)c(O)c1 (stereo not given) | 9.5 µg/mL (≈ 27.7 µM)
58 | CCOC(=O)c1c(C)[nH]c(C)c1C(=O)COC(=O)c1ccc(O)cc1 | > 51.8 µg/mL
59 | Cn1c(SCC2CCCO2)nnc1-c1cccc([N+](=O)[O-])c1 (stereo not given) | > 48.1 µg/mL
60 | Cc1nc(NC(=O)c2c(-c3ccccc3Cl)noc2C)sc1C | 13 µg/mL (≈ 37.4 µM)
61 | COc1ccc(CCC(=O)OCc2csc(CC(=O)Nc3ccc(C)cc3)n2)cc1OC | 9.9 µg/mL (≈ 21.8 µM)
62 | Br.CCC1CC(CSC(=N)N)OC1=O (stereo not given) | > 42.5 µg/mL
63 | CSc1nc2c(c(=O)[nH]c(=O)n2C)n1CCCc1ccccc1 | 24 µg/mL (≈ 72.6 µM)
64 | Cc1ccc(S(=O)(=O)NCc2cccnc2)c(C)c1 | > 41.5 µg/mL
65 | CC(Oc1ccc(Br)cc1Br)C(=O)Nc1cccnc1 (stereo not given) | 7.2 µg/mL (≈ 18 µM)
66 | O=C1c2cccc3cccc(c23)C(=O)N1c1ccccn1 | 40.4 µg/mL (≈ 147 µM)
67 | CC(=O)N(CCN(C)C)c1nc2cc3c(cc2s1)OCCO3.Cl | 47.6 µg/mL
68 | Cc1cc2oc(=O)cc(CN3CCOCC3)c2cc1Cl | 4.3 µg/mL (≈ 14.6 µM)
69 | Cc1ccc(OCC(=O)N2CC(C)CC(C)C2)c([N+](=O)[O-])n1 (stereo not given) | > 46.1 µg/mL
70 | CCN(Cc1nc(-c2cccc(C)c2)no1)C(=O)c1ccco1 | 44.4 µg/mL (≈ 143 µM)
71 | Cc1cc(Br)cc2c1NC(=O)C2(O)CC(=O)c1ccco1 (stereo not given) | 47.7 µg/mL (≈ 136 µM)
72 | CCOC(=O)C1=C(O)/C(=C\c2ccc(O)c(OCC)c2)N=C1C | 36.1 µg/mL (≈ 114 µM)

Row | SMILES | solubility kinetic
73 | Nc1nc(SC23CC4CC(CC(C4)C2)C3)ns1 | < 0.2 µg/mL
74 | COCCCn1c(SCC(=O)NC2CCCC2)nnc1-c1ccncc1 | > 56.3 µg/mL
75 | Cc1cccc(NC(=O)CCNC(=O)c2ccccc2)c1 | 41.5 µg/mL (≈ 147 µM)
76 | O=C(Cn1cc([N+](=O)[O-])ccc1=O)N1CCCc2ccccc21 | > 47 µg/mL
77 | COc1ccccc1CNC(=O)COC(=O)c1cc2ccccc2o1 | 3.8 µg/mL (≈ 11.2 µM)
78 | CC1CCCN(C(=O)CCCC(=O)N2CCCC(C)C2)C1 (stereo not given) | > 44.2 µg/mL
79 | CN(C)c1nc2c(c(=O)[nH]c(=O)n2C)n1CCCc1ccccc1 | > 49.1 µg/mL
80 | CCC(C)[C@H](NC(=O)Nc1ccc2c(c1)OCCO2)C(=O)OC (stereo not given in full) | > 48.4 µg/mL
81 | Cc1cc(O)c(N=Cc2cc3c(cc2[N+](=O)[O-])OCO3)cc1C | 7 µg/mL (≈ 22.3 µM)
82 | COc1cc2c(cc1OC)C(=S)NC1(CCCC1)C2 | 5.5 µg/mL (≈ 19.8 µM)
83 | CN(NC1OC(=O)c2ccccc21)c1ccc(Cl)cc1[N+](=O)[O-] (stereo not given) | > 50.1 µg/mL
84 | CCN1CCN(c2ccc(NC(=O)c3ccco3)cc2)CC1 | 40.2 µg/mL (≈ 134 µM)
85 | CSS(=O)(=O)c1cccc2cccnc12 | > 35.9 µg/mL
86 | O=C1N=C(N2CCOCC2)S/C1=C\c1ccncc1 | > 41.3 µg/mL
87 | CCC(C)NC(=O)COC(=O)c1ccc(Cl)cc1O (stereo not given) | 4.7 µg/mL (≈ 16.4 µM)
88 | COc1ccc2sc(NCc3ccccc3)nc2c1 | 2 µg/mL (≈ 7.4 µM)
89 | Cc1ccc2c(c1)N(CC(=O)Nc1ccccc1F)C(=O)CO2 | 0.7 µg/mL (≈ 2.23 µM)
90 | COCC(=O)Nc1nc(-c2ccc([N+](=O)[O-])cc2)cs1 | 7.3 µg/mL (≈ 24.9 µM)
91 | COc1ccc(NC(C)c2ccccc2)cc1 (stereo not given) | 16.9 µg/mL (≈ 74.3 µM)
92 | Cc1cccc(C(=O)NCC(=O)N2CCCCCCC2)c1 | > 43.3 µg/mL
93 | COC(=O)c1cc(S(=O)(=O)N2CCCC(C)C2)c[nH]1 (stereo not given) | > 43 µg/mL
94 | O=C(NC1CCCCC1)c1cc(-c2cccs2)on1 | 0.9 µg/mL (≈ 3.26 µM)
95 | Cc1noc(C)c1C(=O)Nc1nc2ccc(F)cc2s1 | 22.2 µg/mL (≈ 76.2 µM)
96 | Cc1ccc(CNC(=O)CN2C(=O)c3ccccc3S2(=O)=O)cc1 | 12.5 µg/mL (≈ 36.3 µM)

Row | SMILES | solubility kinetic
97 | c1ccc(P(c2ccccc2)c2ccccn2)cc1 | 10 µg/mL (≈ 38 µM)
98 | COc1ccc(NC(=O)c2ccc(NC(=O)CN3CCC(C(N)=O)CC3)cc2)cc1 | 8.1 µg/mL (≈ 19.7 µM)
99 | CN(C)CC(C)(C)CNCc1cc(=O)oc2ccc3ccccc3c12 | > 50.8 µg/mL
100 | Cc1ccc(NC(=O)CC(=O)Nc2ccc(C)cc2C)c(C)c1 | 6.3 µg/mL (≈ 20.3 µM)
101 | CCOc1ccc(S(=O)(=O)N=C(c2ccccc2)N2CCOCC2)cc1 | > 56.2 µg/mL
102 | COc1ccc(-c2nc(C)sc2CC(=O)O)cc1OC | 42 µg/mL (≈ 143 µM)
103 | Cc1noc(C)c1COC(=O)CNC(=O)c1ccc(Cl)cc1 | > 48.4 µg/mL
104 | CCCc1ncc(C(O)c2cccc(OC)c2)n1C (stereo not given) | > 39.1 µg/mL
105 | N#CCCN(C(=O)COC(=O)c1cc(=O)[nH]c2ccccc12)c1ccccc1 | > 56.3 µg/mL
106 | CC(C)Oc1ccc(N2CC(C(=O)NC3=NCCS3)CC2=O)cc1 (stereo not given) | > 52.1 µg/mL
107 | CC1CCCCC1NC(=O)c1ccncc1 (stereo not given) | > 32.7 µg/mL
108 | CC(NC(=O)c1ccco1)c1nc(-c2ccc(C(C)(C)C)cc2)no1 (stereo not given) | 0.9 µg/mL (≈ 2.65 µM)
109 | Cl.OC1(C#CCN2CCCC2)CCCCC1 | 34.2 µg/mL
110 | Fc1ccc2nc(N3CCOCC3)sc2c1 | > 35.7 µg/mL
111 | COc1cc(CC(=O)N(CC(C)C)C2CCS(=O)(=O)C2)cc(OC)c1OC (stereo not given) | > 59.9 µg/mL
112 | CC(=O)N1c2ccc(Cl)cc2C2OCCC2C1c1ccco1 (stereo not given) | 42.2 µg/mL (≈ 133 µM)
113 | CC1(C)Cc2nc3sc4c(NCCO)ncnc4c3cc2CS1 | > 52 µg/mL
114 | Cc1cnc(NC(=O)CC(C)c2ccccc2)s1 (stereo not given) | 3 µg/mL (≈ 11.5 µM)
115 | CC1=C(C(=O)OCCC(C)C)C(c2ccc3c(c2)OCO3)NC(=O)N1 (stereo not given) | 6.2 µg/mL (≈ 17.9 µM)
116 | Cc1ccc(S(=O)(=O)Nc2ccccc2N2CCOCC2)cc1 | 0.8 µg/mL (≈ 2.41 µM)
117 | O=C(c1cc2ccccc2cc1O)N1CCCC1 | > 36.2 µg/mL
118 | COc1ccc(-c2nc(C#N)c(N3CCCCC3)o2)cc1 | 0.3 µg/mL (≈ 1.06 µM)
119 | COC(=O)c1ccc(Nc2c([N+](=O)[O-])ccc3nonc23)cc1 | < 0.2 µg/mL
120 | CCc1ccc(C)[n+](CC(=O)c2cccs2)c1.[Cl-] | > 42.3 µg/mL
